Source: ChEMBL document CHEMBL1133816, “Potent second generation vinyl sulfonamide inhibitors of the trypanosomal cysteine protease cruzain” (2001)

What was measured:
[1] = molecular target: Cruzipain (Trypanosoma cruzi) (UniProt P25779); experiment: Second order rate constant for inactivation of cruzain of Trypanosoma cruzi
Trypanosoma cruzi [2] = experiment: Effect on survival time of against […] macrophages infected with Trypanosoma cruzi trypomastigotes at a concentration of 10 uM; type: functional
Trypanosoma cruzi [3] = experiment: Effect on survival time of against […] macrophages infected with Trypanosoma cruzi trypomastigotes at a concentration of 30 uM; type: functional, organism-based

Cruzipain (Trypanosoma cruzi), sequence (P25779 123-467 limits assumed): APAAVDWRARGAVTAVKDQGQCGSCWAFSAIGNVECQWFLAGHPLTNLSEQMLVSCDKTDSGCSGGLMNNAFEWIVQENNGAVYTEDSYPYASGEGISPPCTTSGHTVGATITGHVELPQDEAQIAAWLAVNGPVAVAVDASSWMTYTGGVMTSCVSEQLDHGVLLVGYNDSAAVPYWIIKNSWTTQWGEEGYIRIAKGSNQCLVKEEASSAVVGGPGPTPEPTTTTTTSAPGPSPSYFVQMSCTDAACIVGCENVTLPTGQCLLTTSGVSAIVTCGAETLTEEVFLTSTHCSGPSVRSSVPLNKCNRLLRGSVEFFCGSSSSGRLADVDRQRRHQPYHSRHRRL

O=C(N[C@H](/C=C/S(=O)(=O)Oc1ccccc1)CCc1ccccc1)[C@H](Cc1ccccc1)NC(=O)N1CCOCC1
K ass [1]: 1.02e+07 M⁻¹ s⁻¹
Survival time (Trypanosoma cruzi [2]): Toxic

CN1CCN(C(=O)N[C@@H](Cc2ccccc2)C(=O)N[C@H](/C=C/S(=O)(=O)Oc2ccccc2)CCc2ccccc2)CC1
K ass [1]: 720000 M⁻¹ s⁻¹
Survival time (Trypanosoma cruzi [2]): 9 days

O=C(N[C@H](/C=C/S(=O)(=O)c1ccccc1)CCc1ccccc1)[C@H](Cc1ccccc1)NC(=O)N1CCOCC1
K ass [1]: 181000 M⁻¹ s⁻¹
Survival time (Trypanosoma cruzi [2]): >24 days

CN1CCN(C(=O)N[C@@H](Cc2ccccc2)C(=O)N[C@H](/C=C/S(=O)(=O)Nc2ccccc2)CCc2ccccc2)CC1
K ass [1]: 1.26e+06 M⁻¹ s⁻¹
Survival time (Trypanosoma cruzi [2]): 9 days

O=C(N[C@@H](Cc1ccccc1)C(=O)N[C@H](/C=C/S(=O)(=O)Nc1ccccc1)CCc1ccccc1)OCc1ccccc1
K ass [1]: 242000 M⁻¹ s⁻¹
Survival time (Trypanosoma cruzi [2]): 6 days

O=C(N[C@@H](Cc1ccccc1)C(=O)N[C@H](/C=C/S(=O)(=O)Cc1ccccc1)CCc1ccccc1)OCc1ccccc1
K ass [1]: 1.4e+06 M⁻¹ s⁻¹
Survival time (Trypanosoma cruzi [2]): 6 days

CN1CCN(C(=O)N[C@@H](Cc2ccccc2)C(=O)N[C@H](/C=C/S(=O)(=O)NOCc2ccccc2)CCc2ccccc2)CC1
K ass [1]: 6.48e+06 M⁻¹ s⁻¹
Survival time (Trypanosoma cruzi [2]): >24 days

CN1CCN(C(=O)N[C@@H](Cc2ccccc2)C(=O)N[C@H](/C=C/S(=O)(=O)c2ccccc2)CCc2ccccc2)CC1 [K-777]
K ass [1]: 420000 M⁻¹ s⁻¹
Survival time (Trypanosoma cruzi [2]): >24 days

O=C(N[C@H](/C=C/S(=O)(=O)Nc1ccccc1)CCc1ccccc1)[C@H](Cc1ccccc1)NC(=O)N1CCOCC1
K ass [1]: 4.92e+06 M⁻¹ s⁻¹
Survival time (Trypanosoma cruzi [2]): 9 days

O=C(N[C@H](/C=C/S(=O)(=O)NOCc1ccccc1)CCc1ccccc1)[C@H](Cc1ccccc1)NC(=O)N1CCOCC1
K ass [1]: 2.27e+06 M⁻¹ s⁻¹
Survival time (Trypanosoma cruzi [2]): >24 days

O=C(N[C@@H](Cc1ccccc1)C(=O)N[C@H](/C=C/S(=O)(=O)Oc1ccccc1)CCc1ccccc1)OCc1ccccc1
Survival time (Trypanosoma cruzi [3]): Toxic
K ass [1]: 1.68e+07 M⁻¹ s⁻¹

O=C(N[C@H](/C=C/S(=O)(=O)Cc1ccccc1)CCc1ccccc1)[C@H](Cc1ccccc1)NC(=O)N1CCOCC1
K ass [1]: 1.67e+06 M⁻¹ s⁻¹
Survival time (Trypanosoma cruzi [2]): 20 days

CN1CCN(C(=O)N[C@@H](Cc2ccccc2)C(=O)N[C@H](/C=C/S(=O)(=O)Cc2ccccc2)CCc2ccccc2)CC1
K ass [1]: 3.85e+06 M⁻¹ s⁻¹
Survival time (Trypanosoma cruzi [2]): 13 days
